Test results from ChEMBL document CHEMBL1201862, “PubChem BioAssay data set” (2004).
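Grown in 96-well plates, cells were treated for 48 hours with each compound at five concentrations. Insufficient inhibition: endpoint recorded as highest concentration tested. Abbreviation: GI50, concentration required for 50% inhibition of growth.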 Calls of active or inactive are those of the source. Rule as the data show it: active = GI50 up to about 1.1 µM and inactive = higher.

Tests used:
Test in all cases: NCI-60 cell line screen, 48 h
[1] = tested on: A549
[2] = tested on: ACHN
[3] = tested on: CCRF-CEM
[4] = tested on: HCT-116
[5] = tested on: KM12
[6] = tested on: LOX IMVI
[7] = tested on: MOLT-4
[8] = tested on: Malme-3M
[9] = tested on: NCI-H23
[10] = tested on: NCI-H522
[11] = tested on: OVCAR-8
[12] = tested on: SK-MEL-2
[13] = tested on: SK-OV-3
[14] = tested on: SNB-75
[15] = tested on: UACC-62
[16] = tested on: CAKI-1
[17] = tested on: SR

Measured: GI50

Cc1ccccc1NC(=O)c1cc2cc(/N=N/c3ccccc3C(=O)O)ccc2oc1=O
inactive: [1] 33.4 µM | [2] 33.3 µM | [3] 19.7 µM | [4] 20.7 µM | [5] 12.6 µM | [6] 16.4 µM | [7] 18.7 µM | [8] 6.75 µM | [9] 3.11 µM | [10] 12.3 µM | [11] 29.6 µM | [12] 22.8 µM | [13] 28.2 µM | [14] 11.5 µM | [15] 4.7 µM

CCCCOC(=O)NC(=O)c1cn(C2CCCCC2)c(=O)[nH]c1=O
inactive: [1] 38.5 µM | [2] 32.2 µM | [16] > 10 µM | [3] > 100 µM | [4] 21.5 µM | [5] 86.1 µM | [6] 55.2 µM | [7] 98.6 µM | [8] 31 µM | [9] 33 µM | [10] 26.9 µM | [11] 42.9 µM | [12] 38 µM | [13] 20.9 µM | [15] 47.2 µM

CC(=O)NC1C(OCc2ccccc2)OC(COC(=O)CCCCCCCCCCNC(=O)c2cccc3c(=O)c4ccccc4[nH]c23)C(O)C1OC(C)C(=O)NC(C)C(=O)NC(CCC(N)=O)C(N)=O (stereo unspecified)
inactive: [1] 40.9 µM | [2] 55.8 µM | [16] > 100 µM | [4] 79.8 µM | [5] 49.1 µM | [6] 49.3 µM | [7] 47.1 µM | [9] 46.1 µM | [10] 89.1 µM | [11] 94.8 µM | [12] 50.8 µM | [13] > 100 µM | [14] 56.9 µM | [17] 40.1 µM | [15] 35.2 µM

S=c1cc(S)c2c(=S)sc3nc4ccccn4c(=S)c3c2s1
inactive: [1] > 100 µM | [2] > 100 µM | [16] > 100 µM | [3] 32.7 µM | [4] 25 µM | [5] > 100 µM | [6] 47.2 µM | [7] 27.2 µM | [8] > 100 µM | [9] > 100 µM | [11] 33.3 µM | [12] 56.2 µM | [14] > 100 µM | [17] 25.9 µM | [15] 36.4 µM

S=C(N/N=C/c1ccco1)NC12CC3CC(CC(C3)C1)C2
inactive: [1] > 100 µM | [2] > 100 µM | [16] > 100 µM | [3] 54.2 µM | [4] > 100 µM | [5] > 100 µM | [6] 86.5 µM | [7] 39.4 µM | [8] > 100 µM | [9] > 100 µM | [10] 36.7 µM | [11] > 100 µM | [12] > 100 µM | [13] > 100 µM | [14] 83.8 µM | [15] 29.9 µM

Cc1ccc(S(=O)(=O)OCC23CCC(CC2)C2CC23)cc1 (stereo unspecified)
inactive: [1] 57.4 µM | [2] 61.7 µM | [16] 49.8 µM | [3] 39.7 µM | [4] 53.8 µM | [6] 42.7 µM | [7] 35.4 µM | [8] 48.8 µM | [9] 38.3 µM | [11] 59.3 µM | [13] > 100 µM | [14] 3.62 µM | [17] 30.2 µM | [15] > 100 µM

CCCCCCCCCCCCCC(=O)OC1C(CO)OC(=O)C1O (stereo unspecified)
inactive: [1] > 100 µM | [2] > 100 µM | [16] > 100 µM | [3] 89.9 µM | [4] > 100 µM | [5] > 100 µM | [6] > 100 µM | [7] > 100 µM | [8] > 100 µM | [9] > 100 µM | [11] > 100 µM | [12] > 100 µM | [13] > 100 µM | [14] > 100 µM | [15] > 100 µM

O=C(O)C1=C(C(=O)Nc2ccc(NC(=O)C3=C(C(=O)O)C4C=CC3C4)cc2)C2C=CC1C2
inactive: [1] > 100 µM | [2] > 100 µM | [16] > 100 µM | [3] > 100 µM | [4] > 100 µM | [5] > 100 µM | [6] > 100 µM | [7] > 100 µM | [8] > 100 µM | [9] > 100 µM | [11] > 100 µM | [12] 69.7 µM | [13] > 100 µM | [14] > 100 µM | [17] > 100 µM | [15] > 100 µM

CC1=C(C(=O)CC(=O)C(=O)NC2C3CC4CC(C3)CC2C4)Sc2ccccc2N1 (stereo unspecified)
inactive: [1] > 100 µM | [2] > 100 µM | [16] 99.1 µM | [5] > 86.3 µM | [6] > 100 µM | [7] 4.43 µM | [8] > 100 µM | [9] > 100 µM | [10] 97.5 µM | [11] > 100 µM | [12] > 100 µM | [13] > 31.6 µM | [14] > 100 µM | [15] > 100 µM

CNc1nnnn1C1OC(CO)C(O)C1O (stereo unspecified)
inactive: [1] > 100 µM | [2] > 100 µM | [16] > 100 µM | [3] > 100 µM | [4] > 100 µM | [5] > 100 µM | [6] > 100 µM | [7] > 100 µM | [8] > 100 µM | [10] > 100 µM | [11] > 100 µM | [12] > 100 µM | [13] > 100 µM | [14] > 100 µM | [15] > 100 µM

COc1cccc(NC(=O)/C(Cc2nc3ccccc3nc2C)=N/NC(=O)C[n+]2ccccc2)c1
inactive: [1] > 100 µM | [2] > 100 µM | [16] > 100 µM | [3] 51.5 µM | [4] 67.1 µM | [5] > 100 µM | [6] > 100 µM | [7] > 100 µM | [8] > 100 µM | [9] > 100 µM | [11] > 100 µM | [12] > 100 µM | [13] > 100 µM | [14] > 100 µM | [17] > 100 µM | [15] > 100 µM

C/C(CC(=O)Nc1ccc(Cl)c(Cl)c1)=N/NC(=O)C[N+](C)(C)C
inactive: [1] > 100 µM | [2] > 100 µM | [16] > 100 µM | [3] > 100 µM | [4] > 100 µM | [5] > 100 µM | [6] 18.1 µM | [7] > 100 µM | [8] > 100 µM | [9] > 100 µM | [11] > 100 µM | [12] > 100 µM | [14] > 100 µM | [17] 22.5 µM | [15] > 100 µM

CCN(CC)C(=O)CC12CCCCC1=Nc1ccccc12 (stereo unspecified)
inactive: [1] > 100 µM | [2] > 100 µM | [16] > 100 µM | [3] > 100 µM | [4] > 100 µM | [5] > 100 µM | [6] > 100 µM | [7] > 100 µM | [8] > 100 µM | [9] > 100 µM | [11] > 100 µM | [12] > 100 µM | [13] > 100 µM | [14] > 100 µM | [15] > 100 µM
